Results published in patent US20170166598A1, “HETEROARYL COMPOUNDS FOR KINASE INHIBITION” (ARIAD PHARMACEUTICALS, INC., priority 2014, published 2017).

Legend:
Format in all cases: cell-based
[1] = molecular target: T1, human EGFR E746-A750 deletion and T790M Mutation (Homo sapiens, UniProt P00533, DEL746-750/T790M); test: Ba/F3-EGFR-Del/T790M cell anti-proliferative assay (CellTiter 96 MTS, 72 h); details: Ba/F3-EGFR-Del/T790M cells
T1 construct: expressed in transfected cells; host or cells: Ba/F3 (murine pro-B) cells transduced with lentivirus from pLVX-IRES puro
Summary of the method: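 Ba/F3 cells made IL-3-independent by lentiviral human EGFR E746-A750 del/T790M, puromycin-selected. Cells treated 72 h at 37 °C with compound, 4-fold dilutions from 10,000 nM top concentration. Viability read by MTS tetrazolium-to-formazan conversion, absorbance at 490 nm after 2 h with reagent.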

[2] = molecular target: T2, Her2 exon 20 YVMA insertion (A775_G776ins YVMA) (Homo sapiens, UniProt P04626, INS775YVMA); test: Ba/F3-Her2 Exon20 YVMA cell anti-proliferative assay (CellTiter 96 MTS, 72 h); details: Ba/F3-Her2 Exon20 YVMA cells
T2 construct: expressed in transfected cells; host or cells: Ba/F3 (murine pro-B) cells transduced with lentivirus from pLVX-IRES puro
Summary of the method: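 IL-3-independent Ba/F3 cells transduced with the YVMA insertion were treated with compound in 4-fold dilutions from 10,000 nM top. After 72 h at 37° C, viable cells were quantified by MTS tetrazolium conversion, with absorbance read at 490 nm after 2 h.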

[3] = molecular target: T3, human EGFR exon 20 insertion NPG (H773_V774insNPG) (Homo sapiens, UniProt P00533, INS772GNP); test: Ba/F3-EGFR-Exon20-NPG cell anti-proliferative assay (CellTiter 96 MTS, 72 h); details: Ba/F3-EGFR-Exon20-NPG cells
T3 construct: expressed in transfected cells; host or cells: Ba/F3 (murine pro-B) cells transduced with lentivirus from pLVX-IRES puro
Summary of the method: (§1)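 Ba/F3 cells made IL-3-independent by lentiviral EGFR exon 20 NPG or ASV insertion were exposed 72 h at 37 °C to 4-fold dilutions of compound (top 10,000 nM). Viability read by MTS tetrazolium conversion, absorbance 490 nm after 2 h.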

[4] = molecular target: T4, human EGFR L858R and T790M double mutation (Homo sapiens, UniProt P00533, L858R/T790M); test: Ba/F3-EGFR L858R/T790M cell anti-proliferative assay (CellTiter 96 MTS, 72 h); details: Ba/F3-EGFR L858R/T790M cells
T4 construct: expressed in transfected cells; host or cells: Ba/F3 (murine pro-B) cells transduced with lentivirus from pLVX-IRES puro
Procedure: An expression vector, pLVX-IRES puro (Clontech) coding for human EGFR L858R and T790M double mutation, was transfected into HEK293 cells by the Trans-Lentiviral ORF Packaging System (Thermo Scientific), to produce virus encoding EGFR L858R and T790M double mutations. Ba/F3 (DSMZ) cells maintained in RPMI 1640 medium supplemented with 10% fetal bovine serum, 200 μM L-glutamine/l 200 μg/mL penicillin/200 μg/mL streptomycin (Life Technology) and 10 ng/mL IL-3 (R&D system), were infected by EGFR L858R and T790M double mutation virus and subsequently selected by puromycin (Life Technology) selection and IL-3 depletion. […] The anti-proliferative activity of compounds was determined as follows: BaF3-EGFR L858R/T790M cells seeded in 96 well plates (2500 cells/well) were treated with test compound (dissolved in DMSO) at a series of concentrations (4-fold dilution, top concentration: 10,000 nM). The plates were incubated for 72 h in a 37° C. incubator with 5% CO2, and the number of viable cells in each well were measured indirectly by CellTiter 96® Aqueous One Solution Cell Proliferation Assay (Promega; this assay is a colorimetric method for determining the number of viable cells through measurement of their metabolic activity by detection of enzymatic conversion of tetrazolium salts into blue formazan derivatives). Reagent (20 μL) was added into each well, and the plates were returned to the incubator for 2 h. The absorbance in each well was then measured at 490 nm using an Envision plate reader (Perkin Elmer).

[5] = molecular target: T5, human EGFR exon 20 insertion ASV (V769_D770insASV) (Homo sapiens, UniProt P00533, INS769ASV); test: Ba/F3-EGFR-Exon20-ASV cell anti-proliferative assay (CellTiter 96 MTS, 72 h); details: Ba/F3-EGFR-Exon20-ASV cells
T5 construct: expressed in transfected cells; host or cells: Ba/F3 (murine pro-B) cells transduced with lentivirus from pLVX-IRES puro
Summary of the method: as §1

T1 sequence (P00533 with tags, fused parts or gaps DEL746-750/T790M): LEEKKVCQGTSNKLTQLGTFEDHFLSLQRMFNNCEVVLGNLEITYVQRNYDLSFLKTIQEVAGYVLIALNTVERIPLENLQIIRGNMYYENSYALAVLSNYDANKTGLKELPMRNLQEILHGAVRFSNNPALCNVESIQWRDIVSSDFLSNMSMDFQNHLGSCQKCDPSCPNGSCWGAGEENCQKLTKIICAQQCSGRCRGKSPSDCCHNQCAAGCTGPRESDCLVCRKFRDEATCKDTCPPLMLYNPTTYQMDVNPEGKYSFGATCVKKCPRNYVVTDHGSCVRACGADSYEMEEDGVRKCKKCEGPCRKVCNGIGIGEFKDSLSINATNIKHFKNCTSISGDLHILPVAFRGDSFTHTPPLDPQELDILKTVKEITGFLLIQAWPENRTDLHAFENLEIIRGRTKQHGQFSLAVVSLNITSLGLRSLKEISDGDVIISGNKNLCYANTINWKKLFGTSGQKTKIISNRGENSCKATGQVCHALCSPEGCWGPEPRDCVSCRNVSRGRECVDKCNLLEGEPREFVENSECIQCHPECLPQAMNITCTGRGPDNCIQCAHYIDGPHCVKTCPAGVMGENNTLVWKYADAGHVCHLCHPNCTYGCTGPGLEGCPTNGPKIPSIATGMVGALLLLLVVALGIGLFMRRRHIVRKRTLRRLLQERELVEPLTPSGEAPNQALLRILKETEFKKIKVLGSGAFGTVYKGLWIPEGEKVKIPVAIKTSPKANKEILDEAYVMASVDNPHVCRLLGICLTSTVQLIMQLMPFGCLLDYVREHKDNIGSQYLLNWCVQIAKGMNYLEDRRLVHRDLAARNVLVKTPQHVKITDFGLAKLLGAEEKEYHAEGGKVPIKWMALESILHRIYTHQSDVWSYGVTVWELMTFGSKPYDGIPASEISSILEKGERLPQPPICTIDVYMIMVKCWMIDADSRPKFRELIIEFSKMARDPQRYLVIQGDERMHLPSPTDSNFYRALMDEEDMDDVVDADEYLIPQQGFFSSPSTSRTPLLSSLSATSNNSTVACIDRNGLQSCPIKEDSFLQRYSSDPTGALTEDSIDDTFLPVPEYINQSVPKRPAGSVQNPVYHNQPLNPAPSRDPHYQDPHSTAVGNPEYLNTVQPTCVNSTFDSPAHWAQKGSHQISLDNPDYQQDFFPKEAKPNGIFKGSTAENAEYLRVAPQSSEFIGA
T5 sequence (P00533 with tags, fused parts or gaps INS769ASV): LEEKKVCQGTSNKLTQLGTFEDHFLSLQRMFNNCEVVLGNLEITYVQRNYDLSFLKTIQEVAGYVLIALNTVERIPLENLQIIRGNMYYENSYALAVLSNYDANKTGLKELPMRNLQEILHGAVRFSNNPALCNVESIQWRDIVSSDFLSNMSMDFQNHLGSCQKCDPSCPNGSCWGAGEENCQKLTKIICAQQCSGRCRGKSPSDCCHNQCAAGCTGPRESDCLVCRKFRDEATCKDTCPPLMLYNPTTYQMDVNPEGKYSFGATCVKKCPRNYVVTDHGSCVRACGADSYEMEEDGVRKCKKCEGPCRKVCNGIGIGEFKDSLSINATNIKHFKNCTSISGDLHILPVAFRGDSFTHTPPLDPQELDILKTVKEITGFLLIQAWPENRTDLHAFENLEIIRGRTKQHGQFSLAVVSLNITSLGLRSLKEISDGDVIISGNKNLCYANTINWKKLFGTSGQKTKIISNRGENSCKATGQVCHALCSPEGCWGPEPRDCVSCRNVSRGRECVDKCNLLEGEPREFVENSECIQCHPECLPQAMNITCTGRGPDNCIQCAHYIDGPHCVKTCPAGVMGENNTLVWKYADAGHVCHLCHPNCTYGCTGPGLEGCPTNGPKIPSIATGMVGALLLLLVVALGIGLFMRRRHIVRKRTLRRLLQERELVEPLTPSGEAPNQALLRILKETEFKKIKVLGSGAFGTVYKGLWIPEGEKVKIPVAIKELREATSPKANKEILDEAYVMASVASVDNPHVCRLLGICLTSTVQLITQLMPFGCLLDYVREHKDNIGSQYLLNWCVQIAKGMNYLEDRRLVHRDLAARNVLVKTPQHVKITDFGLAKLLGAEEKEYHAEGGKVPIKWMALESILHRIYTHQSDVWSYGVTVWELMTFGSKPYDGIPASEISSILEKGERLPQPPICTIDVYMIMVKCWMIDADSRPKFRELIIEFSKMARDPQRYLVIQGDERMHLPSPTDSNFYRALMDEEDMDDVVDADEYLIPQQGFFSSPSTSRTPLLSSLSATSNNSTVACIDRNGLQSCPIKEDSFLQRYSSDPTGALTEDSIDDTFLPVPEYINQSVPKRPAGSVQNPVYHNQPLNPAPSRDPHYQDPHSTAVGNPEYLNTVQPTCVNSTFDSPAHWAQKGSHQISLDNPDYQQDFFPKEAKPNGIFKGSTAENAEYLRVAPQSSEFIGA
T2 sequence (P04626 with tags, fused parts or gaps INS775YVMA): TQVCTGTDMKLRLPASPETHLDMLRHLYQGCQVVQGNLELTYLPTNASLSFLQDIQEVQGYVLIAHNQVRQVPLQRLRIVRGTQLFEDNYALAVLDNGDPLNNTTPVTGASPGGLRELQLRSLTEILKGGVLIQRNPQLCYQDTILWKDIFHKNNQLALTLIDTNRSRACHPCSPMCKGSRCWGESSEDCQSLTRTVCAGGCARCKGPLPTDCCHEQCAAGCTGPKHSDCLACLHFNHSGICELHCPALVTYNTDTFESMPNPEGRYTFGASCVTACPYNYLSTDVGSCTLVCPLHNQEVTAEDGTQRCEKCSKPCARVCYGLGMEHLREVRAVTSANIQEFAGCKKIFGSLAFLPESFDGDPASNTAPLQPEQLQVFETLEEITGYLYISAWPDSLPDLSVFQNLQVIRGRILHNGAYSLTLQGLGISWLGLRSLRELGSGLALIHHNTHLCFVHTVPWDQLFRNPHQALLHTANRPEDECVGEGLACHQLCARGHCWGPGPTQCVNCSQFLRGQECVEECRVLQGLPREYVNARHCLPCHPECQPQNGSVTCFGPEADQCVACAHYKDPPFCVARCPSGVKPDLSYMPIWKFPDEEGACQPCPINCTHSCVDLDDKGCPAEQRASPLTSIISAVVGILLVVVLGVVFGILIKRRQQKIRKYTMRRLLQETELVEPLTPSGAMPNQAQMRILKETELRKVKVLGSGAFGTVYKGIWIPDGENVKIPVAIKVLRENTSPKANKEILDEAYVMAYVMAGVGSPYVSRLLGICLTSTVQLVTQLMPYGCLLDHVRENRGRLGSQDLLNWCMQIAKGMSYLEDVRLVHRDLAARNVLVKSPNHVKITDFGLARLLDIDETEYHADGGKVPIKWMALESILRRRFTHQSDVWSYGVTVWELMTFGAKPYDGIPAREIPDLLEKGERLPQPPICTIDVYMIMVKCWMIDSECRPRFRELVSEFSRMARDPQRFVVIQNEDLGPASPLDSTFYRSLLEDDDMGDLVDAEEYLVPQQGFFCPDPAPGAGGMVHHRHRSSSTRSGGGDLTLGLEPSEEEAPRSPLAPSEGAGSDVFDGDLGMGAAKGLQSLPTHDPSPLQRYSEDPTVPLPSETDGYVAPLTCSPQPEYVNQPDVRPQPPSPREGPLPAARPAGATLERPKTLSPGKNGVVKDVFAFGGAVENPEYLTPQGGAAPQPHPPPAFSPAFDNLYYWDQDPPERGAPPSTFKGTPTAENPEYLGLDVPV
T4 sequence (P00533 25-1210 T790M/L858R): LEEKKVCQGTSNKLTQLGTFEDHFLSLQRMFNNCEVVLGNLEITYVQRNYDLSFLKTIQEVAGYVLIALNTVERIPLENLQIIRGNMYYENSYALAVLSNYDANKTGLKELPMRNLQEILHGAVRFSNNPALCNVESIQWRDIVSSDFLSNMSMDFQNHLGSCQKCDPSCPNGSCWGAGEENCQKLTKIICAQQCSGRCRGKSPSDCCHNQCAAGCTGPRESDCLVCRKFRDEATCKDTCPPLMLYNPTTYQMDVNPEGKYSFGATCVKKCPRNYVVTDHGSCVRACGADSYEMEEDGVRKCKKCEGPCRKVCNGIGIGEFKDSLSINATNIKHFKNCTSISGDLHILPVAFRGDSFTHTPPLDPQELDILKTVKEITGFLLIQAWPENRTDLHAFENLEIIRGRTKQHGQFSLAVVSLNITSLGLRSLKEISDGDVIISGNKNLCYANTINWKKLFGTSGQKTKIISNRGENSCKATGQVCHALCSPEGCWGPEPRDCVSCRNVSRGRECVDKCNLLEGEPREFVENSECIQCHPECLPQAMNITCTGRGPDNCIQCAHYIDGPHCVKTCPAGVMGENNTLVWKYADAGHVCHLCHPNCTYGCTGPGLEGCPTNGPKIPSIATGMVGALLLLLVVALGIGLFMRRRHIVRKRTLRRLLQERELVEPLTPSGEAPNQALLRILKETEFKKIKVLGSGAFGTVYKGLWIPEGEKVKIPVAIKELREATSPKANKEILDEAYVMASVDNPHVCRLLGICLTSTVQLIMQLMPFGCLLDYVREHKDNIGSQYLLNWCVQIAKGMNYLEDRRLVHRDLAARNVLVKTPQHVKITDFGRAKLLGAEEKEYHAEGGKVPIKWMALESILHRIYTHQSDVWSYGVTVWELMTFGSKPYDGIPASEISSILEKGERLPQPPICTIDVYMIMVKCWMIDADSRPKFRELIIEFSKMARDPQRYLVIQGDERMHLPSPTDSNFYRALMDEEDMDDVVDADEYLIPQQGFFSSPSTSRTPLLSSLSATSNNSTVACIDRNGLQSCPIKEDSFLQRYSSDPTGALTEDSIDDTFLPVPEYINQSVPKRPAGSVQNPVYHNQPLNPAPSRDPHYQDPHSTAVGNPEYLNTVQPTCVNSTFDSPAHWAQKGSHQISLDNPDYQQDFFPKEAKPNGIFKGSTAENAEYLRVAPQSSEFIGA

Structure (SMILES)	EGFR exon 19 deletion and exon 20 T790M mutation IC50 [1]	IC50 [2] [µM]	IC50 [3] [µM]	EGFR exon 21 L858R and exon 20 T790M mutation IC50 [4]	IC50 [5] [µM]
C=CC(=O)Nc1cc(Nc2ncc(CC)c(-c3cn4c5c(cccc35)OCC4)n2)c(OC)cc1N(C)CCN(C)C [Example 1, N-(5-((4-(2,3-dihydro-[1,4]oxazino[2,3,4-hi]indol-6-yl)-5-ethylpyrimidin-2-yl)amino)-2-((2-(dimethylamino)ethyl)(methyl)amino)-4-methoxyphenyl)acrylamide]	A (IC50 value for the indicated mutant below about 100 nM)	0.1 to 0.5	< 0.1	A (IC50 value for the indicated mutant below about 100 nM)	< 0.1
C=CC(=O)Nc1cc(Nc2ncc(C#N)c(-c3cn4c5c(cccc35)OCC4)n2)c(OC)cc1N(C)CCN(C)C [Example 4, N-(5-((5-cyano-4-(2,3-dihydro-[1,4]oxazino[2,3,4-hi]indol-6-yl)pyrimidin-2-yl)amino)-2-((2-(dimethylamino)ethyl)(methyl)amino)-4-methoxyphenyl)acrylamide]	A (IC50 value for the indicated mutant below about 100 nM)	< 0.1	< 0.1	A (IC50 value for the indicated mutant below about 100 nM)	< 0.1
C=CC(=O)Nc1cc(Nc2nccc(-c3cn4c5c(cccc35)CCC4)n2)c(OC)cc1N(C)CCN(C)C [Example 10, N-(5-((4-(5,6-dihydro-4H-pyrrolo[3,2,1-ij]quinolin-1-yl)pyrimidin-2-yl)amino)-2-((2-(dimethylamino)ethyl)(methyl)amino)-4-methoxyphenyl)acrylamide]	A (IC50 value for the indicated mutant below about 100 nM)	0.1 to 0.5	< 0.1	A (IC50 value for the indicated mutant below about 100 nM)	0.1 to 0.5
C=CC(=O)Nc1cc(Nc2ncc(Cl)c(-c3cn4c5c(cccc35)CCC4)n2)c(OC)cc1N(C)CCN(C)C [Example 11, N-(5-((5-chloro-4-(5,6-dihydro-4H-pyrrolo[3,2,1-ij]quinolin-1-yl)pyrimidin-2-yl)amino)-2-((2-(dimethylamino)ethyl)(methyl)amino)-4-methoxyphenyl)acrylamide]	A (IC50 value for the indicated mutant below about 100 nM)	0.1 to 0.5	< 0.1	A (IC50 value for the indicated mutant below about 100 nM)	< 0.1
C=CC(=O)Nc1cc(Nc2ncc(Cl)c(-c3cn4c5c(cccc35)CCC4)n2)c(Cl)cc1N(C)CCN(C)C [Example 12, N-(4-chloro-5-((5-chloro-4-(5,6-dihydro-4H-pyrrolo[3,2,1-ij]quinolin-1-yl)pyrimidin-2-yl)amino)-2-((2-(dimethylamino)ethyl)(methyl)amino)phenyl)acrylamide]	A (IC50 value for the indicated mutant below about 100 nM)	0.1 to 0.5	< 0.1	A (IC50 value for the indicated mutant below about 100 nM)	–
C=CC(=O)Nc1cc(Nc2ncc(Cl)c(-c3cn4c5c(cccc35)CCC4)n2)c(OC)cc1O[C@H](COCC)CN(C)C [Example 23, (S)-N-(5-((5-chloro-4-(5,6-dihydro-4H-pyrrolo[3,2,1-ij]quinolin-1-yl)pyrimidin-2-yl)amino)-2-((1-(dimethylamino)-3-ethoxypropan-2-yl)oxy)-4-methoxyphenyl)acrylamide]	A (IC50 value for the indicated mutant below about 100 nM)	0.1 to 0.5	0.1 to 0.5	A (IC50 value for the indicated mutant below about 100 nM)	–
C=CC(=O)Nc1cc(Nc2ncc(Cl)c(-c3cn4c5c(cccc35)OCC4)n2)c(OC)cc1O[C@@H](COCC)CN(C)C [Example 80, (R)-N-(5-((5-chloro-4-(2,3-dihydro-[1,4]oxazino[2,3,4-hi]indol-6-yl)pyrimidin-2-yl)amino)-2-((1-(dimethylamino)-3-ethoxypropan-2-yl)oxy)-4-methoxyphenyl)acrylamide]	A (IC50 value for the indicated mutant below about 100 nM)	0.1 to 0.5	< 0.1	A (IC50 value for the indicated mutant below about 100 nM)	–
C=CC(=O)Nc1cc(Nc2ncc(Cl)c(-c3cn4c5c(cccc35)OCC4)n2)c(OC)cc1O[C@H](COCC)CN(C)C [Example 81, (S)-N-(5-((5-chloro-4-(2,3-dihydro-[1,4]oxazino[2,3,4-hi]indol-6-yl)pyrimidin-2-yl)amino)-2-((1-(dimethylamino)-3-ethoxypropan-2-yl)oxy)-4-methoxyphenyl)acrylamide]	A (IC50 value for the indicated mutant below about 100 nM)	0.1 to 0.5	< 0.1	A (IC50 value for the indicated mutant below about 100 nM)	–
C=CC(=O)Nc1cc(Nc2ncc(-c3cnn(C)c3C)c(-c3cn4c5c(cccc35)CCC4)n2)c(OC)cc1N(C)CCN(C)C [Example 102]	A (IC50 value for the indicated mutant below about 100 nM)	< 0.1	< 0.1	–	< 0.1
C=CC(=O)Nc1cc(Nc2ncc(C(=O)OC(C)C)c(-c3cn4c5c(cccc35)CCC4)n2)c(OC)cc1N(C)CCN(C)C [Example 103]	A (IC50 value for the indicated mutant below about 100 nM)	< 0.1	< 0.1	–	< 0.1
C=CC(=O)Nc1cc(Nc2ncc(OCCOC)c(-c3cn4c5c(cccc35)CCC4)n2)c(OC)cc1N(C)CCN(C)C [Example 104]	A (IC50 value for the indicated mutant below about 100 nM)	0.1 to 0.5	< 0.1	–	< 0.1
C=CC(=O)Nc1cc(Nc2ncc(N3CCCC3)c(-c3cn4c5c(cccc35)CCC4)n2)c(OC)cc1N(C)CCN(C)C [Example 106]	A (IC50 value for the indicated mutant below about 100 nM)	0.5 to 1	0.1 to 0.5	–	0.1 to 0.5
C=CC(=O)Nc1cc(Nc2ncc(-c3ncccn3)c(-c3cn4c5c(cccc35)CCC4)n2)c(OC)cc1N(C)CCN(C)C [Example 108]	B (IC50 value for the indicated mutant between about 100 to about 500 nM)	> 1	< 0.1	–	0.1 to 0.5
C=CC(=O)Nc1cc(Nc2nccc(-c3c(-c4ncccn4)n4c5c(cccc35)CCC4)n2)c(OC)cc1N(C)CCN(C)C [Example 109]	B (IC50 value for the indicated mutant between about 100 to about 500 nM)	> 1	0.1 to 0.5	–	> 1
C=CC(=O)Nc1cc(Nc2nccc(-c3c(-c4ncnn4C)n4c5c(cccc35)CCC4)n2)c(OC)cc1N(C)CCN(C)C [Example 110]	A (IC50 value for the indicated mutant below about 100 nM)	> 1	< 0.1	–	0.1 to 0.5
C=CC(=O)Nc1cc(Nc2ncc(-c3ncnn3C)c(-c3cn4c5c(cccc35)CCC4)n2)c(OC)cc1N(C)CCN(C)C [Example 111]	A (IC50 value for the indicated mutant below about 100 nM)	0.1 to 0.5	< 0.1	–	< 0.1
